Reference: patent publication US20230104283A1, “JNK INHIBITOR, AND PHARMACEUTICAL COMPOSITION AND USE THEREOF” (WUHAN LL SCIENCE AND TECHNOLOGY DEVELOPMENT CO. , LTD, priority 2019, published 2023)

Experiments:
JNK1 kinase = target: T1, JNK1 kinase (Homo sapiens, UniProt P45983); assay: JNK1 activity screening (time-resolved fluorometric HTRF kinase assay); assay type: biochemical; details: enzymatic assay, activity level
T1 construct: purchased Carna Biosciences 04-163
Description: JNK1 activity screening. JNK1 activity was detected using a 96-well (Cisbio, 66PL96025) time-resolved fluorometric assay. The JNK1 assay was conducted in the following assay buffer: 10 mM MgCl2 (Sigma, M1028), 1 mM MnCl2 (Sigma, M1787), 1 mM DTT (Sigma, D0632) and 1× Enzymatic buffer/kinase (Cisbio, 62EZBFDC). By using the assay buffer, 3 μL of 0.1 ng/μL JNK1 kinase (Carna Biosciences, 04-163) was added to a 96-well microplate, and then 4 μL of a compound diluted appropriately (with a DMSO content of 2.5%) was added. The resulting mixture was incubated at room temperature for 0.5 h. To start the reaction, the assay buffer was used to mix 0.003 μM ATP (Aladdin, A7699) and 30 μM substrate ATF2-GST fusion (Cisbio, 64CUS000AFPEB), and 3 μL of the mixed solution was added to the microplate. The resulting mixture was incubated at room temperature for 2.5 h. HTRF detection buffer ([…], 62SDBRDD) was used then to prepare a mixture of 5 μg/mL MAb Anti GST-XL665 (Cisbio, 61GSTXLA) and 0.045 μg/mL PAb Anti-phospho ATF2-K (Cisbio, 61P12KAZ), and 10 μL of the mixture was added to the plate to terminate the reaction. After incubation for about 12 h, the plate was read on a Perkin-Elmer Envision reader.

[1] = system: RAW264.7 phosphorylated c-Jun (Ser63); assay: RAW264.7 phosphorylated c-Jun whole cell assay; assay type: cell-based; details: Mus musculus; cytological assay, activity level; lipopolysaccharide-activated RAW264.7 cells, phospho-c-Jun (Ser63) ELISA
Description: RAW264.7 (ATCC TIB-71) cells were purchased from BeNa Culture Collection and maintained in a high-glucose DMEM medium (Gibco) containing 10% fetal bovine serum (Gibco) and 1% penicillin-streptomycin (Gibco). All cells were cultured at 37° C. in 95% air and 5% CO2. All cells were seeded into 120 μL of cell culture medium in a 96-well plate at a density of 2×10^5 cells per well. The stock solution of compound (15 mM) was serially diluted in DMSO (Sigma) and further diluted in growth medium, and it was then added at 15 μL per well as a 10× concentrated solution, well mixed with the cells and incubated with the cells for 30 min. Concentration of the compound vehicle (DMSO) in each well was 0.2%. After incubation for 30 min, the cells were activated with […] lipopolysaccharide (Sigma). Lipopolysaccharide was added to the growth medium as a 10× concentrated solution at 15 μL per well. The cell plate was incubated for 1 h, and then all the medium was removed. The level of C-Jun protein with phosphorylation of serine at site 63 was measured using the whole cell lysate kit-phosphorylated C-Jun assay (PathScan® Phospho-c-Jun (Ser63) Sandwich ELISA Kit) (CST, 7145C) according to the manufacturer's instructions.

[2] = Stability observed during preparation; assay type: physicochemical; details: isolated compound; acid, base, water vapor
Description: (1R,3R,4R)-5-amino-2-methylcyclohexanol hydrochloride (57 mg, 0.342 mmol) and DIEA (132 mg, 1.026 mmol) were added to a solution of compound T041-3 (100 mg, 0.342 mmol) in isopropanol (3 mL) at room temperature with stirring. After stirring at room temperature for 3 h, the reaction was completed. The reaction mixture was added with water and extracted with ethyl acetate, and the organic phase was washed with saturated brine and dried over anhydrous sodium sulfate. The reaction mixture was concentrated under reduced pressure, purified by preparative high performance liquid chromatography (ammonium bicarbonate method) and lyophilized to give 40 mg of a white solid with a yield of 34%.

T1 sequence (P45983 whole entry): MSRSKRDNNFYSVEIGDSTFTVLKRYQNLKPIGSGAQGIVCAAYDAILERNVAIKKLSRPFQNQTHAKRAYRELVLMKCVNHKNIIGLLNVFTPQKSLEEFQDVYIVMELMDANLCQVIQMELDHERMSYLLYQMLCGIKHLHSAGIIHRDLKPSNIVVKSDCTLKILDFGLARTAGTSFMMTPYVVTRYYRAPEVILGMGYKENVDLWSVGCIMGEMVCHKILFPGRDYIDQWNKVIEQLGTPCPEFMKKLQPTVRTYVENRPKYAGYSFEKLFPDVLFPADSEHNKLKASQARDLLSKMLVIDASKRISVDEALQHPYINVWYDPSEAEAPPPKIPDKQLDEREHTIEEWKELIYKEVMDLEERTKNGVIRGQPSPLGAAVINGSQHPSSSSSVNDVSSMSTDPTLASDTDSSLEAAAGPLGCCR

| SMILES | IC50 (JNK1 kinase) [nM] | IC50 [1] [nM] | stability of the compound [2] |
| --- | --- | --- | --- |
| C[C@@H]1CC[C@@H](Nc2nc(OC(C)(C)C)ncc2Br)C[C@H]1O [Compound T041, (1R,2R,5R)-5-((5-bromo-2-(tert-butoxy)pyrimidin-4-yl)amino)-2-methylcyclohexan-l-ol] | 500 to 1000 | > 1000 | unstable due to susceptibility to acid, base, water vapor and the like |
| C[C@@H]1CC[C@@H](Nc2cc(NC3CCCC3)ncc2C(N)=O)C[C@H]1O [Compound T056, 6-(cyclopentylamino)-4-(((1R,3R,4R)-3-hydroxy-4-methylcyclohexyl)amino) nicotinamide] | 500 to 1000 | > 1000 |  |
| C[C@@H]1CC[C@@H](Nc2cc(NC3CC3)ncc2C(N)=O)C[C@H]1O [Compound T058, 6-(cyclopropylamino)-4-(((1R,3R,4R)-3-hydroxy-4-methylcyclohexyl)amino) nicotinamide] | > 1000 | > 1000 |  |
| C[C@@H]1CC[C@@H](Nc2cc(NC3C4C[C@H]43)ncc2C(N)=O)C[C@H]1O (stereo partly drawn) [Compound T060, 6-(((1R,2R)-bicyclo[1 1.0]butan-2-yl)amino)-4-(((1R,3R,4R)-3-hydroxy-4-methylcyclohexyl)amino)nicotinamide] | > 1000 | > 1000 |  |
| C[C@@H]1CC[C@@H](Nc2nc(NC(C)(C)C)ncc2[N+](=O)[O-])C[C@H]1O [Compound T062, (1R,2R,5R)-5-((2-(tert-butylamino)-5-nitropyrimidin-4-yl)amino)-2-methylcyclohex-1-ol] | > 1000 | > 1000 |  |
| C#Cc1cnc(NC(C)(C)C)nc1N[C@@H]1CC[C@@H](C)[C@H](O)C1 [Compound T064, (1R,2R,5R)-5-((2-(ter-butylamino)-5-ethynylpyrimidin-4-yl)amino)-2-methylcyclohex-1-ol] | 500 to 1000 | > 1000 |  |
| CC#Cc1cnc(NC(C)(C)C)nc1N[C@@H]1CC[C@@H](C)[C@H](O)C1 [Compound T065, (1R,2R,5R)-5-((2-(tert-butylamino)-5-(prop-1-yn-1-yl)pyrimidin-4-yl)amino)-2-methylcyclohexan-1-ol] | > 1000 | > 1000 |  |
| CC(C)C(=O)c1cnc(NC(C)(C)C)nc1N[C@@H]1CC[C@@H](C)[C@H](O)C1 [Compound T070, 1-(2-(tert-butylamino)-4-(((1R,3R,4R)-3-hydroxy-4-methylcyclohexyl)amino)pyrimidin-5-yl)-2-methylpropan-1-one] | 500 to 1000 | > 1000 |  |

Continued, in another order:

| IC50 (JNK1 kinase) [nM] | IC50 [1] [nM] | SMILES | stability of the compound [2] |
| --- | --- | --- | --- |
| > 1000 | > 1000 | C[C@@H]1CC[C@@H](Nc2cc(NC(C)(C)F)ncc2C(N)=O)C[C@H]1O [Compound T057, 6-((2-fluoropropan-2-yl)amino)-4-(((1R, 3R,4R)-3-hydroxy-4-methylcyclohexyl)amino)nicotinamide] |  |
| > 1000 | > 1000 | C[C@@H]1CC[C@@H](Nc2cc(NC3CC3O)ncc2C(N)=O)C[C@H]1O (stereo partly drawn) [Compound T059, 4-(((1R,3R,4R)-3-hydroxy-4-methylcyclohexyl)amino)-6-((2-hydroxycyclopropyl)amino)nicotinamide] |  |
| > 1000 | > 1000 | C[C@@H]1CC[C@@H](Nc2nc(NC(C)(C)C)ncc2N)C[C@H]1O [Compound T063, (1R,2R,5R)-5-((5-amino-2-(tert-butylamino)pyrimidin-4-yl)amino)-2-methylcyclohexan-1-ol] |  |
| > 1000 | > 1000 | C=Cc1cnc(NC(C)(C)C)nc1N[C@@H]1CC[C@@H](C)[C@H](O)C1 [Compound T066, (1R,2R,5R)-5-((2-(tert-butylamino)-5-vinylpyrimidin-4-yl)amino)-2-methylcyclohex-1-ol] |  |
| 100 to 500 | 100 to 500 | CC(=O)c1cnc(NC(C)(C)C)nc1N[C@@H]1CC[C@@H](C)[C@H](O)C1 [Compound T067, 1-(2-(tert-butylamino)-4-(((1R,3R,4R)-3-hydroxy-4-methylcyclohexyl)amino)pyrimidin-5-yl)ethan-1-one] |  |
| 100 to 500 | 100 to 500 | C[C@@H]1CC[C@@H](Nc2nc(NC(C)(C)C)ncc2C(=O)C2CC2)C[C@H]1O [Compound T068, (2-(tert-butylamino)-4-(((1R,3R,4R)-3-hydroxy-4-methylcyclohexyl)amino)pyrimidin-5-yl)(cyclopropyl)methanone] |  |
| 100 to 500 | 100 to 500 | CCC(=O)c1cnc(NC(C)(C)C)nc1N[C@@H]1CC[C@@H](C)[C@H](O)C1 [Compound T069, 1-(2-(tert-butylamino)-4-(((1R,3R,4R)-3-hydroxy-4-methylcyclohexyl)amino)pyrimidin-5-yl)propan-1-one] |  |
| 500 to 1000 | > 1000 | CC(=O)c1cnc(NC(C)(C)C(F)(F)F)nc1N[C@@H]1CC[C@@H](C)[C@H](O)C1 [Compound T071, 1-(4-(((1R,3R,4R)-3-hydroxy-4-methylcyclohexyl)amino)-2-((1,1,1-trifluoro-2-methylpropan-2-yl)amino)pyrimidin-5-yl)ethan-1-one] |  |
| < 100 | < 100 | C[C@@H]1CC[C@@H](Nc2nc(Nc3ccc(S(C)(=O)=O)cc3)ncc2C(N)=O)C[C@H]1O [Compound T072, 4-(((1R,3R,4R)-3-hydroxy-4-methylcyclohexyl)amino)-2-((4-(methylsulfonyl)phenyl)amino) pyrimidine-5-carboxamide] |  |
| < 100 | 100 to 500 | C[C@@H]1CC[C@@H](Nc2nc(Nc3ccc(N4CCN(C)CC4)cc3)ncc2C(N)=O)C[C@H]1O [Compound T073, 4-(((1R,3R,4R)-3-hydroxy-4-methylcyclohexyl)amino)-2-((4-(4-methylpiperazin-1-yl)phenyl)amino)pyrimidine-5-carboxamide] |  |
| < 100 | < 100 | COc1ccc(CNc2ncc(C(N)=O)c(N[C@@H]3CC[C@@H](C)[C@H](O)C3)n2)cc1 [Compound T074, 4-(((1R,3R,4R)-3-hydroxy-4-methylcyclohexyl)amino)-2-((4-methoxybenzyl)amino)pyrimidine-5-carboxamide] |  |
